We go through one compound from publication PMC10610134, “Verubulin (Azixa) Analogues with Increased Saturation: Synthesis, SAR and Encapsulation in Biocompatible Nanocontainers Based on Ca^2+ or Mg^2+ Cross-Linked Alginate” (Pharmaceuticals, 2023).

Series [1] deals with microtubules in carcinoma A549 cells. Put plainly: Immunofluorescent microscopy of microtubules. The series is classed as cell-based, human. The note with it: 24 h, A549. How it is done: Since verubulin is known to stimulate microtubule disassociation, we performed an immunofluorescent microscopy study to determine the response of microtubule dynamics in carcinoma A549 cells to the treatment with representative compounds 2b,c,e. […] Aberrant cell morphology—contraction and rounding (Figure 2A,B) or contraction and elongation (Figure 2C)—was also observed.
A549 cells were seeded on coverslips (treated with poly-l-lysine at a concentration of 33 mg/L for an hour). Compounds were added up to the corresponding concentration after 24 h attachment and growth of the cells. Then, cells were incubated 24 h.
The cells were fixed with methanol (precooled in liquid nitrogen for 20 min), no additional permeabilization was performed. To prevent non-specific binding, cells were incubated with 4% BSA in PBS for one hour. Then, a solution of mouse monoclonal antibodies against alpha-tubulin cross-linked with Alexa 488 fluoroform (Thermo Fisher Scientific, Waltham, MA, USA, 32-2588) at a concentration of 5 μg/mL in 1% BSA solution in PBS was added to the cells, and the slides were incubated at +5 °C in a water chamber for 24 h. After the end of the incubation time, the cells were washed several times with PBS buffer solution and fixed on a glass slide with Moviol. Next day, cells were imaged with a ZEISS LSM 900 (ZEISS Microscopy, GmbH, Germany) and images processed with ImageJ.

In the next series the test system is HCT116 cells. Put plainly: Apoptosis induction, Annexin V / 7-AAD flow cytometry. It counts as cell-based, human. As to the method:
Apoptosis is an important and active regulatory pathway of cell growth and proliferation. Annexin V is a calcium-dependent phospholipid-binding protein with a high affinity for phosphatidylserine (PS), a membrane component normally localized to the internal face of the cell membrane. Early in the apoptotic pathway, molecules of PS are translocated to the outer surface of the cell membrane where Annexin V can readily bind them.
After incubation, the cells were harvested by trypsinization, precipitated by centrifugation (3000 rpm), washed with cold PBS and recentrifuged. Aliquots of cells were processed as recommended in the Muse Annexin V& Dead Cell Kit (Luminex Corporation, Austin, TX, USA). The results were recorded on a Muse Cell Analyzer flow cytometer (Merck, Rahway, NJ, USA).

Another series deals with A549 cell line. In words: MTT assay of nanocontainer formulations, A549. The series is classed as cell-based. The following applies: Homo sapiens, 48 h treatment, 2c concentration in formulations = 0.1 × COO− concentration. How it is done: (§1) The MTT assay was carried out on the A549 cell line and non-tumor hTERT-immortalized human fibroblasts for 48 h (Table 2; for cell survival curves, see Supplementary Materials).
(§2) Lung adenocarcinoma A549, breast adenocarcinoma MDA-MB-231 and non-tumor fibroblasts immortalized with h-TERT cell lines were obtained from the American Type Culture Collection (Manassas, VA, USA). Cells were routinely propagated in Dulbecco’s modified Eagle’s medium (DMEM) supplemented with 10% fetal bovine serum (HyClone, Logan, UT, USA), 2 mM L-glutamine, 100 U/mL penicillin and 100 μg/mL streptomycin (PanEco, Moscow, Russia) at 37 °C, 5% CO2 in a humidified atmosphere. Cells in the logarithmic phase of growth were used in the experiments.
(§3) The cytotoxicity of compounds for human cell lines (A549, MDA-MB-231, non-tumor fibroblasts) was assessed in MTT assays. […]
(§4) Cytotoxicity was assessed in a formazan conversion assay (MTT test) after a 48 h exposure. After the completion of drug exposure, 0.5 mg/mL 3-(4,5-dimethylthiazol-2-yl)-2,5-diphenyltetrazolium bromide (MTT reagent) was added to cells for 2 h, the culture medium was removed, cells were resuspended in 100 μL DMSO and the optical densities were measured on a Multiscan FC plate spectrophotometer (Thermo Fisher Scientific, Waltham, MA, USA) at a wavelength of 571 nm. […]
For orientation: Tetrazolium dyes change colour on reduction, which living cells bring about.

The test system of series [2] is hTERT-immortalized human fibroblasts. Put plainly: MTT assay of nanocontainer formulations, fibroblasts. The series is classed as cell-based. The following applies: Fibroblast, 48 h treatment, 2c concentration in formulations = 0.1 × COO− concentration. As to the method: as §1, §2, §3, §4

With `COc1ccc(N(C)c2nc(C)nc3c2CCCC3)cc1` [Compound 2c, N-(4-methoxyphenyl)-N,2-dimethyl-5,6,7,8-tetrahydroquinazolin-4-amine], in series [1] (10 μM), the “effect on microtubules (MTs)” value is on record as “full depolymerization of MTs”. Besides, in series [1] (5–10 μM), the effect on microtubules result was “pronounced or complete disruption of microtubules”. Further, in the series on HCT116 cells (2 × IC50, 48 h, HCT116), the “apoptotic cells, early plus late” value was 30%. The “Live (viable cells)” value with HCT116 cells (human, 48 h) turned out to be 69.45%. Besides, the IC50 stood at 0.6 ± 0.06 µM in the series on A549 cell line and 4.2 ± 0.3 µM in series [2].

The IC50 is the concentration that inhibits the measured activity by half.
